Assay [1] deals with MDA-MB-231 xenograft. Put plainly: MDA-MB-231 xenograft in vivo model, metastasis assessment. Also noted: species or system NOD SCID gamma mice. The conditions noted are these: compared to vehicle control; RC3 5-50 μg/day/mouse in drinking water for 21 days. On the procedure: Luciferase tagged MDA-MB-231 cells were injected at a concentration of 0.2×10^6 cells subcutaneously into two sites of the flank of NOD SCID gamma mice (Taconic, Denmark). Cells were prepared in a 60% mixture of matrigel (growth factor reduced, BD Bioscience) and 40% complete media. The size of the tumors were determined by calliper measurement of the subcutaneous tumor mass two times per week and tumor volume was calculated according to the formula volume=(length×(width)^2/2). Assessments of metastasis were performed using the IVIS® whole body imager (PerkinElmer) based on luciferase expression from stably transfected cell lines.

Assay [2] has as its system MDA-MB-231 breast cancer cell line. Put plainly: Secondary sphere formation assay in MDA-MB-231. The assay is classed as cell-based. The conditions noted are these: 48 hours; for progranulin induced secondary sphere formation: MDA-MB-231, in combination with 500 nM progranulin; for baseline sphere formation, compound used alone: MDA-MB-231, without progranulin. On the procedure: (§1) C-terminal Progranulin (progranulin) (Casio, peptide sequence: […], SEQ ID NO: 5) were reconstituted in sterile PBS upon delivery, aliquoted and stored at −20° C. Working stock concentrations were achieved by dilution in culture media. […] 5% CO2 and 21% O2 before performing the primary followed by secondary sphere formation assay.
(§2) The sphere formation assay was performed as described previously (Mammary Gland Biol Neoplasia, 2012, 17(2): 111-117). Briefly, single cell suspensions were obtained following treatment with respective sortilin inhibitors SI1, SI5, SI8, SI25, SI32, SI39, SI51 and SI62 of the invention and seeded in phenol red-free DMEM/F-12 (Gibco®, Life Technologies), supplemented with 1% B27 supplement (Fisher Scientific, Invitrogen), 1% P/S and 20 ng/ml EGF (BD Biosciences) onto non-adherent polyhema-coated plates. After cultivation for five days, single cell suspensions were obtained from the primary spheres and seeded again in phenol red-free DMEM/F-12 supplemented with 1% B27 supplement, 1% P/S and 20 ng/ml EGF onto non-adherent polyhema-coated plates for 5-7 days. Subsequently, spheres greater than 50 μm in diameter were counted manually in the microscope.

Assay [3] has as its target T1, human sortilin (sSORT) (Homo sapiens, UniProt Q99523).
T1 sequence (Q99523 78-756 limits assumed): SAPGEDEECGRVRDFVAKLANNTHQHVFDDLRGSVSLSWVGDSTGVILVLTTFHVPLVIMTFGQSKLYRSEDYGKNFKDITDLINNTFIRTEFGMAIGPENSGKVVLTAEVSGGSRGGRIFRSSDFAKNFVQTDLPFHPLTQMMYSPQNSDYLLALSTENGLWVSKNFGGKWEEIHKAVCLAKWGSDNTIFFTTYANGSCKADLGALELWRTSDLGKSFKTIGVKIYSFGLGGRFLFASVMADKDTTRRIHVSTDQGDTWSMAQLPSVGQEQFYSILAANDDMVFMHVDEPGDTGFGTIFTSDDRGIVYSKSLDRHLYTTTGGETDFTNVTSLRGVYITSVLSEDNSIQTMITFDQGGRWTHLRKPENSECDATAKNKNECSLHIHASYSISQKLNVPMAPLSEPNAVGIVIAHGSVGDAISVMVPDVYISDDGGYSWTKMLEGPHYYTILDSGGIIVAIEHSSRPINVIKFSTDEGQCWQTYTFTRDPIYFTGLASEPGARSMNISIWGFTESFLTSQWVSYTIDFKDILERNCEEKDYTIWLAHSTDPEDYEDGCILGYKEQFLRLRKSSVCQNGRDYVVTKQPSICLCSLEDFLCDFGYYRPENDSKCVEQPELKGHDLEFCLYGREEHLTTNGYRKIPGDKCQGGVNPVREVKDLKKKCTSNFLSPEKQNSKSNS
Put plainly: Neurotensin competitive fluorescence polarization binding assay (FPA). The conditions noted are these: mean IC50 values for sortilin inhibitors, IC50 (nM), 100 nM sSORT, 10 nM Neurotensin-Ahx-FITC, 1 h room temperature.
Method: Fresh 0.1% bovine serum albumin (BSA) was added to the assay buffer to obtain the final concentration: 50 mM HEPES, pH 7.4; 100 mM NaCl; 2.0 mM CaCl2; 0.1% BSA; 0.1% TWEEN® 20. The sortilin inhibitors of the invention and reference compounds (see Table 1) analyzed in the screen and neurotensin (used as an assay control) were serially diluted in ten different concentrations in assay buffer. In each well of a Nunc® MaxiSorp™ 384-well plate (Sigma Aldrich), 100 nM sSORT was mixed with pre-diluted sortilin inhibitors and 10 nM Neurotensin-Ahx-FITC in assay buffer adjusted to contain 1% DMSO in a final volume of 20 μl. The plate was then briefly centrifuged prior to 1 h incubation at room temperature in the dark.

The test system of assay [4] is melanoma cell line SK-MEL-30. Put plainly: Sphere formation assay in SK-MEL-30. The assay is classed as cell-based. The conditions noted are these: SK-MEL-30, FIG. 6. The procedure:
as §1, §2

The subject of assay [5] is colon cancer cell line HT-29. Put plainly: Sphere formation assay in HT-29. The assay is classed as cell-based. The conditions noted are these: HT-29, FIG. 5. On the procedure: as §1, §2

On to `Cc1cccc(NC(=O)c2ccc(C(F)(F)F)cc2C(=O)O)n1` [RC3, 2-(N-6-Methyl-2-pyridylcarbamoyl)-5-(trifluoromethyl)benzoic acid, reference compound], for which the “lung metastasis / metastasis formation” value in assay [1] was “induced lung metastasis”. Also, in assay [2], the “progranulin induced secondary sphere formation” value was “reduced sphere formation” and the “baseline sphere formation, compound used alone” value (from here on “baseline sphere formation”) is “increased sphere formation”.
For `CC(C)(C)/C=C/C(NC(=O)c1ccc(OCc2ccccc2)nc1)C(=O)O` (stereo not shown) [SI39, (E)-2-[6-(benzyloxy)nicotinoylamino]-5,5-dimethyl-3-hexenoic acid], the “baseline sphere formation” value in assay [2] is “reduced baseline sphere formation”. In assay [3], this compound came in with an IC50 of 65 nM.
With `CC(C)(C)/C=C/C(NC(=O)c1cc(Cl)c(Cl)s1)C(=O)O` (stereo not shown) [SI62, (E)-2-(4,5-dichloro-2-thienylcarbonylamino)-5,5-dimethyl-3-hexenoic acid], the “melanoma cancer cell sphere formation” value in assay [4] is “reduced”. Besides, the “baseline sphere formation” value in assay [2] was “reduced baseline sphere formation”. Also, in assay [3], the half-maximal inhibitory concentration (IC50) came out at 61 nM.
Consider `CC(C)(C)/C=C/C(NC(=O)c1cc(Cl)cs1)C(=O)O` (stereo not shown) [SI32, (E)-2-(4-chloro-2-thienylcarbonylamino)-5,5-dimethyl-3-hexenoic acid], for which the “baseline sphere formation” value in assay [2] is “reduced baseline sphere formation”. The compound further displayed an IC50 in assay [3] of 52 nM.
With `CC(C)(C)/C=C/C(NC(=O)c1cccc(-n2ccnc2)c1)C(=O)O` (stereo not shown) [SI25, (E)-5,5-dimethyl-2[m-(1-imidazolyl)benzoylamino]-3-hexenoic acid], in assay [2], the “baseline sphere formation” value is “reduced baseline sphere formation”. In assay [3], this compound gave an IC50 of 31 nM.
On to `Cc1nc(N(C)C)ncc1C(=O)NC(/C=C/C(C)(C)C)C(=O)O` (racemic) [SI1, (E)-2-[2-(dimethylamino)-4-methyl-5-pyrimidinylcarbonylamino]-5,5-dimethyl-3-hexenoic acid], for which, in assay [2], the “progranulin induced secondary sphere formation” value was “reduced sphere formation” and the “baseline sphere formation” value is reported as “reduced baseline sphere formation”. The compound also had an IC50 in assay [3] of 59 nM.
As for `CC(C)(C)/C=C/C(NC(=O)c1ccc(Oc2ccccc2)nc1)C(=O)O` (racemic) [SI5, (E)-5,5-dimethyl-2-(6-phenoxynicotinoylamino)-3-hexenoic acid], the “colon cancer cell sphere formation” value in assay [5] was “reduced”. For the same compound, the “lung metastasis / metastasis formation” value in assay [1] is “reduced metastasis formation”. In addition, in assay [2], the “progranulin induced secondary sphere formation” value is on record as “reduced sphere formation” and the “baseline sphere formation” value is recorded as “reduced baseline sphere formation”. This compound also registered an IC50 in assay [3] of 17 nM.
Consider `CC(C)(C)/C=C/C(NC(=O)c1ccc(-c2cccs2)cc1)C(=O)O` (stereo not shown) [SI51, (E)-5,5-dimethyl-2-[p-(2-thienyl)benzoylamino]-3-hexenoic acid], for which the “baseline sphere formation” value in assay [2] is recorded as “reduced baseline sphere formation”. The same compound registered an IC50 in assay [3] of 80 nM.
With `CC(C)(C)/C=C/C(NC(=O)c1cc(Cl)c[nH]1)C(=O)O` (stereo not shown) [SI8, (E)-2-(4-chloro-2-pyrrolylcarbonylamino)-5,5-dimethyl-3-hexenoic acid], in assay [2], the “progranulin induced secondary sphere formation” value is “reduced sphere formation” and the “baseline sphere formation” value is listed as “reduced baseline sphere formation”. Further, in assay [3], the concentration for half-maximal inhibition (IC50) is 43 nM.

The values are drawn from patent US20250002460A1, “SORTILIN INHIBITORS” (SORTINA PHARMA AB, priority 2021, published 2025).
